Assay results from paper doi:10.1101/2023.11.24.568596v1 (biorxiv, 2023).
Blank lines part the entries; values can stand above or below the compound they belong to.

How the values were obtained:
Settings in all cases: binder
[1] = biological target: AKT3 (Homo sapiens, UniProt Q9Y243)
[2] = biological target: CaMK1g (Homo sapiens, UniProt Q96NX5)
[3] = biological target: GSK3B (Homo sapiens, UniProt P49841)
[4] = biological target: JNK2 (Homo sapiens, UniProt P45984)
[5] = biological target: T1, MAP2K6 (Homo sapiens, UniProt P52564)
T1 sequence (P52564 1-334): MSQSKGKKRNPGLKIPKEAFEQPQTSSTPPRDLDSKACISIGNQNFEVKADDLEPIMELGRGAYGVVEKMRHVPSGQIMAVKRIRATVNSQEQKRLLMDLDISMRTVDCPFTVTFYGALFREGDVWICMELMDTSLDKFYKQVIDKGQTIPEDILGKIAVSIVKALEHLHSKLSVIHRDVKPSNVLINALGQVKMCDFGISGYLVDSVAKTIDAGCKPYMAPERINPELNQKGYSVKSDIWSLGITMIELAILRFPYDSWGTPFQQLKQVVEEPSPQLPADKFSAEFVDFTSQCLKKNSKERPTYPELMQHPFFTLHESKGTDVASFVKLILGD

[6] = biological target: T2, MARK4 (Homo sapiens, UniProt Q96L34)
T2 sequence (Q96L34 1-752): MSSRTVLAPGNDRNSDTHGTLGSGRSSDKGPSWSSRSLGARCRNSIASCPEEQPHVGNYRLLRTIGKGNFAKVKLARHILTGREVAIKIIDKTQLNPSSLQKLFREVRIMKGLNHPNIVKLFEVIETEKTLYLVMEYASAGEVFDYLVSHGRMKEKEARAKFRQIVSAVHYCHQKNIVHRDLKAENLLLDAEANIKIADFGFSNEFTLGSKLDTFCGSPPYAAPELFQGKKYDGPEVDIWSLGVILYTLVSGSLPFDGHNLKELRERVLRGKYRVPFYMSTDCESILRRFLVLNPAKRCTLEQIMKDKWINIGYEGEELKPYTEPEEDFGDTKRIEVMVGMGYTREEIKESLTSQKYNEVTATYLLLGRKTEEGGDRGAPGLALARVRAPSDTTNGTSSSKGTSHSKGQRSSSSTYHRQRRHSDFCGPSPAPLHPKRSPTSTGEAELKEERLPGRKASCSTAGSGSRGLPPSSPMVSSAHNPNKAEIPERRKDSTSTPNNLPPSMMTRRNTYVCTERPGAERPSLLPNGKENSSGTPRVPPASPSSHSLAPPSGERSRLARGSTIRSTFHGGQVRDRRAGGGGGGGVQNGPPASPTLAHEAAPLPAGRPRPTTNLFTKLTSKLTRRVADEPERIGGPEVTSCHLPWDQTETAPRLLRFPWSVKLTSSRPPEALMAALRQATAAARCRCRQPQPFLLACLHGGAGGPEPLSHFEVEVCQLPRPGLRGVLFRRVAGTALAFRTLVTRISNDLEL

[7] = biological target: MST3 (Homo sapiens, UniProt Q9Y6E0)
MST3, sequence (Q9Y6E0 whole entry): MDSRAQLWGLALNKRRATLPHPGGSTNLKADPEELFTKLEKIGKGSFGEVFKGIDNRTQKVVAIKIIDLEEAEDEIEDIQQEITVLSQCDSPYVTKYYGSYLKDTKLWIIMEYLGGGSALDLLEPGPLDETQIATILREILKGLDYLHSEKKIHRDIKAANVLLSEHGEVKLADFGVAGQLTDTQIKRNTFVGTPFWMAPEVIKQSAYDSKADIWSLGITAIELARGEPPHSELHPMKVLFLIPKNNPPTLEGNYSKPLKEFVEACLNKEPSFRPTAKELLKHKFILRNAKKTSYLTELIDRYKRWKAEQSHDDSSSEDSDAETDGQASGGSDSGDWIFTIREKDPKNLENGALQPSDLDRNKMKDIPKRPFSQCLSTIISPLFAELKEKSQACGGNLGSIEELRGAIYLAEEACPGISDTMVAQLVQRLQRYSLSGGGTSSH

[8] = biological target: T3, NEK2 (Homo sapiens, UniProt P51955)
T3 sequence (P51955 1-445): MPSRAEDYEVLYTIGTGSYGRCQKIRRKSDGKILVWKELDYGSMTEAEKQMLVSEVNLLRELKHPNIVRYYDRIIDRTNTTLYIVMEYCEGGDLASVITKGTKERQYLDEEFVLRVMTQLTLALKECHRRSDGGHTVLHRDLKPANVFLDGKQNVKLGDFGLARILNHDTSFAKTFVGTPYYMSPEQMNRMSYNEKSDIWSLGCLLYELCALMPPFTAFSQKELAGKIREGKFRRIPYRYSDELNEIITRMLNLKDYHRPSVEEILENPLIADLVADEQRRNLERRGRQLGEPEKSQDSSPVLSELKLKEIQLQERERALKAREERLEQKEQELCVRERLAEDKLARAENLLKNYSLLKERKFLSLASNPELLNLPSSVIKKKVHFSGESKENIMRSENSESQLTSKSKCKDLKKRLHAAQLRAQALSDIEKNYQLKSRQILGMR

[9] = biological target: T4, PHKG2 (Homo sapiens, UniProt P15735)
T4 sequence (P15735 1-406): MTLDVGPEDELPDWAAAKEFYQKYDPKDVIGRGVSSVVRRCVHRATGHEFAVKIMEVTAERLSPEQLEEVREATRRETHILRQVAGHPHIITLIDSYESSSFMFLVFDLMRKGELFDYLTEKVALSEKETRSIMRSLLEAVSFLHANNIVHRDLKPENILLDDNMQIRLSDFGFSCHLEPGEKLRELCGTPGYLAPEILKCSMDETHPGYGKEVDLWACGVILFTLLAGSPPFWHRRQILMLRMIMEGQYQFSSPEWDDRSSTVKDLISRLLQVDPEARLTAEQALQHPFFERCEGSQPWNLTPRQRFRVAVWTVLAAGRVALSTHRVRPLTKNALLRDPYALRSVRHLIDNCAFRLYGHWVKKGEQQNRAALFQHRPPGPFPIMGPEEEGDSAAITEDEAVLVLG

GSK3B, sequence (P49841 whole entry): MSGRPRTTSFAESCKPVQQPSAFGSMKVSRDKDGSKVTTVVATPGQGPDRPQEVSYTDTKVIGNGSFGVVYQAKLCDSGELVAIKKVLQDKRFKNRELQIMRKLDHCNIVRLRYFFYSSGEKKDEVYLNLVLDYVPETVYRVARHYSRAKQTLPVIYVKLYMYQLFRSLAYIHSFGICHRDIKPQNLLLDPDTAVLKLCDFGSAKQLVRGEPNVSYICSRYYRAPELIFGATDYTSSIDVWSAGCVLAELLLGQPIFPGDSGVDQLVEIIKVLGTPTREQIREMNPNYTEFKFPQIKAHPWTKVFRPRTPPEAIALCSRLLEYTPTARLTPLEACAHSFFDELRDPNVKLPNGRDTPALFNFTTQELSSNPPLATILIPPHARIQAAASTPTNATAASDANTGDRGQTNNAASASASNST
JNK2, sequence (P45984 whole entry): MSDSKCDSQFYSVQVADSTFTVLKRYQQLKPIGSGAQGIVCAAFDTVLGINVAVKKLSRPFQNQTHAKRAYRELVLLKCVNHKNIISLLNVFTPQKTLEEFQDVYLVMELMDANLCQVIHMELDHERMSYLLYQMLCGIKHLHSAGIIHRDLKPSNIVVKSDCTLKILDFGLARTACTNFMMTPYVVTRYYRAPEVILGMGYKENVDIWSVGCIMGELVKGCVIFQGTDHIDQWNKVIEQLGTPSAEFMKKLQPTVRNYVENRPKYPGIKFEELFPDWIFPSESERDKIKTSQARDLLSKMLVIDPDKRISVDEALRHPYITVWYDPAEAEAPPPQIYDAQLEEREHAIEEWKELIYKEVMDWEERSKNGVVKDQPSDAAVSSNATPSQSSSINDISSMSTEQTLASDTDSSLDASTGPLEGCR
CaMK1g, sequence (Q96NX5 whole entry): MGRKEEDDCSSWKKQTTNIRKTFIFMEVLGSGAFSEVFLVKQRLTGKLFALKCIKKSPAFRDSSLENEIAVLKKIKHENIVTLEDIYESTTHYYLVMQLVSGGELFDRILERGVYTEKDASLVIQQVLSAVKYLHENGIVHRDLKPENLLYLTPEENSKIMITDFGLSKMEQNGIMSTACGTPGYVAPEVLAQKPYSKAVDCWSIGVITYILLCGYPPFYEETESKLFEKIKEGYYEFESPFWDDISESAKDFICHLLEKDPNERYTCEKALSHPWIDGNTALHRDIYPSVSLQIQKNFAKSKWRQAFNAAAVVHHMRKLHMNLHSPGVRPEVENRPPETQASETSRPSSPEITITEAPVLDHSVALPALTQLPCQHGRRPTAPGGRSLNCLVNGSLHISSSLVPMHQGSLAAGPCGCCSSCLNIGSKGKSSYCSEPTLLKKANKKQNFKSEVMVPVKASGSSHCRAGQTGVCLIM
AKT3, sequence (Q9Y243 whole entry): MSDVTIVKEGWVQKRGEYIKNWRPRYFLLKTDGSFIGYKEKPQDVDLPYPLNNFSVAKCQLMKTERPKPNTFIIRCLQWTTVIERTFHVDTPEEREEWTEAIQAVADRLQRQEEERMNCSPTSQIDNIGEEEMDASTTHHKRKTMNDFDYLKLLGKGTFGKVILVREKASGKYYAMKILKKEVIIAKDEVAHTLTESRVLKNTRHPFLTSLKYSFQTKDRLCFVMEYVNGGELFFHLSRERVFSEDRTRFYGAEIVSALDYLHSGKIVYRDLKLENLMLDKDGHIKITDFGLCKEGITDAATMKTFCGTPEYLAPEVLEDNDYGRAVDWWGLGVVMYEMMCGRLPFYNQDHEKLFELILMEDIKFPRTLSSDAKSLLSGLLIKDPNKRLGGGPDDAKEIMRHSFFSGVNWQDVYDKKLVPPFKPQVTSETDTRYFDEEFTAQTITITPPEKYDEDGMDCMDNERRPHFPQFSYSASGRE

ΔTm 22 [1]: 4.6 °C
ΔTm 22 [2]: 5.1 °C
ΔTm 22 [3]: 1.3 °C
ΔTm 22 [4]: 0.3 °C
ΔTm 22 [5]: 5.6 °C
ΔTm 22 [6]: 5.8 °C
ΔTm 22 [7]: 10.5 °C
ΔTm 22 [8]: 6.6 °C
ΔTm 22 [9]: 1.4 °C
SMILES: CNc1ncc2cc(-c3ccc(-c4cccc(C)n4)cc3Cl)c(=O)n(CCC3CCNCC3)c2n1 [compound 22, 6-(2-Chloro-4-(6-methylpyridin-2-yl)phenyl)-2-(methylamino)-8-(2-(piperidin-4-yl)ethyl)pyrido[2,3-d]pyrimidin-7(8H)-one]

ΔTm MRLW5 (20) [1]: 2.3 °C
ΔTm MRLW5 (20) [2]: 3.9 °C
ΔTm MRLW5 (20) [3]: 1.8 °C
ΔTm MRLW5 (20) [4]: 0.3 °C
ΔTm MRLW5 (20) [5]: 5.7 °C
ΔTm MRLW5 (20) [6]: 8.2 °C
ΔTm MRLW5 (20) [7]: 11.7 °C
ΔTm MRLW5 (20) [8]: 4.6 °C
ΔTm MRLW5 (20) [9]: 1.8 °C
SMILES: CNc1ncc2cc(-c3ccc(-c4cccc(C)n4)cc3Cl)c(=O)n(CCCCN)c2n1 [compound 20, MRLW5]

ΔTm 25 [1]: 2.0 °C
ΔTm 25 [2]: 6.5 °C
ΔTm 25 [3]: 3.8 °C
ΔTm 25 [4]: 2.6 °C
ΔTm 25 [5]: 8.3 °C
ΔTm 25 [6]: 5.8 °C
ΔTm 25 [7]: 11.8 °C
ΔTm 25 [8]: 8.8 °C
ΔTm 25 [9]: 4.0 °C
SMILES: Cc1cccc(-c2ccc(-c3cc4cnc(NCCCc5ccc(N)cc5)nc4n(CCCCN)c3=O)c(Cl)c2)n1 [compound 25, 8-(4-Aminobutyl)-2-((3-(4-aminophenyl)propyl)amino)-6-(2-chloro-4-(6-methylpyridin-2-yl)phenyl)pyrido[2,3-d]pyrimidin-7(8H)-one]

ΔTm MR26 (26) [1]: 0.8 °C
ΔTm MR26 (26) [2]: 4.3 °C
ΔTm MR26 (26) [3]: 0.8 °C
ΔTm MR26 (26) [4]: 0.0 °C
ΔTm MR26 (26) [5]: 3.1 °C
ΔTm MR26 (26) [6]: 3.7 °C
ΔTm MR26 (26) [7]: 12.4 °C
ΔTm MR26 (26) [8]: 5.9 °C
ΔTm MR26 (26) [9]: 2.1 °C
SMILES: Cc1cccc(-c2ccc(-c3cc4cnc(NCCCN5CCOCC5)nc4n(CCCCN)c3=O)c(Cl)c2)n1 [compound 26, MR26]

ΔTm 23 [1]: 3.7 °C
ΔTm 23 [2]: 9.5 °C
ΔTm 23 [3]: 1.7 °C
ΔTm 23 [4]: 1.3 °C
ΔTm 23 [5]: 8.3 °C
ΔTm 23 [6]: 12.7 °C
ΔTm 23 [7]: 10.8 °C
ΔTm 23 [8]: 6.9 °C
ΔTm 23 [9]: 2.4 °C
SMILES: CNc1ncc2cc(-c3ccc(-c4cccc(C)n4)cc3Cl)c(=O)n(C[C@H]3CC[C@H](N)CC3)c2n1 [compound 23, 23]

ΔTm MR24 (24) [1]: 1.0 °C
ΔTm MR24 (24) [2]: 1.4 °C
ΔTm MR24 (24) [3]: 0.0 °C
ΔTm MR24 (24) [4]: 0.4 °C
ΔTm MR24 (24) [5]: 2.8 °C
ΔTm MR24 (24) [6]: 3.3 °C
ΔTm MR24 (24) [7]: 11.0 °C
ΔTm MR24 (24) [8]: 5.6 °C
ΔTm MR24 (24) [9]: 1.0 °C
SMILES: Cc1cccc(-c2ccc(-c3cc4cnc(NC(CO)CO)nc4n(CCCCN)c3=O)c(Cl)c2)n1 [compound 24, 8-(4-Aminobutyl)-6-(2-chloro-4-(6-methylpyridin-2-yl)phenyl)-2-((1,3-dihydroxypropan-2-yl)amino)pyrido[2,3-d]pyrimidin-7(8H)-one]
